Experiments:
Type in all cases: in vivo
transplanted rice = assay: Test Example 1: preemergence treatment under submerged conditions, effect on crop; details: dose 2.52 g/a
Outline: (§1)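 Flooded-paddy preemergence assay; EC diluted with water, surface-applied at weed seeding; doses g/a; rice transplanted at 2.5 leaves; 0–5 mortality score after 3 weeks.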

bulrush [1] = assay: Test Example 1: herbicidal effects in preemergence treatment under submerged conditions; details: dose 2.52 g/a
Outline: as §1

barnyardgrass [2] = assay: as above; details: dose 2.52 g/a
Outline: as §1

ducksalad [3] = assay: as above; details: dose 2.52 g/a
Outline: as §1

velvetleaf [4] = assay: Test Example 4: herbicidal effect in foliage treatment; details: dose 3.2 g/a, three weeks after the application
Outline: (§2)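 A uniform foliar spray of emulsifiable concentrate, diluted with water to give the stated g/a dose, was applied to plants raised for 14 days from seed in sterilized diluvial soil at 25 to 30° C. Herbicidal effects were scored three weeks later.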

water foxtail [5] = assay: as above; details: dose 3.2 g/a, three weeks after the application
Outline: as §2

common lambsquater [6] = assay: as above; details: dose 3.2 g/a, three weeks after the application
Outline: as §2

giant foxtail [7] = assay: as above; details: dose 3.2 g/a, three weeks after the application
Outline: as §2

Italian ryegrass [8] = assay: as above; details: dose 3.2 g/a, three weeks after the application
Outline: as §2

wild oat [9] = assay: as above; details: dose 3.2 g/a, three weeks after the application
Outline: as §2

large crabgrass [10] = assay: as above; details: dose 3.2 g/a, three weeks after the application
Outline: as §2

common ragweed [11] = assay: as above; details: dose 3.2 g/a, three weeks after the application
Outline: as §2

barnyardgrass [12] = assay: as above; details: dose 3.2 g/a, three weeks after the application
Outline: as §2

posumbu knotweed = assay: as above; details: dose 3.2 g/a, three weeks after the application
Outline: as §2

beadstraw = assay: as above; details: dose 3.2 g/a, three weeks after the application
Outline: as §2

velvetleaf [13] = assay: Test Example 3: herbicidal effects in soil treatment; details: dose 3.2 g/a
Outline: (§3)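 Seeds were sown in sterilized diluvial soil and covered with about 1.5 cm of soil. Compounds, formulated as emulsifiable concentrates and diluted with water, were sprayed evenly over the soil surface at set doses in g/a. Herbicidal effect was scored on a rating scale three weeks later.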

water foxtail [14] = assay: as above; details: dose 3.2 g/a
Outline: as §3

common lambsquater [15] = assay: as above; details: dose 3.2 g/a
Outline: as §3

redroot pigweed = assay: as above; details: dose 3.2 g/a
Outline: as §3

giant foxtail [16] = assay: as above; details: dose 3.2 g/a
Outline: as §3

Italian ryegrass [17] = assay: as above; details: dose 3.2 g/a
Outline: as §3

wild oat [18] = assay: as above; details: dose 3.2 g/a
Outline: as §3

large crabgrass [19] = assay: as above; details: dose 3.2 g/a
Outline: as §3

common ragweed [20] = assay: as above; details: dose 3.2 g/a
Outline: as §3

barnyardgrass [21] = assay: as above; details: dose 3.2 g/a
Outline: as §3

bulrush [22] = assay: Test Example 2: herbicidal effects during the vegetation period under submerged conditions; details: treatment during the vegetation period under submerged conditions; dose 2.52 g/a
Outline: (§4)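 Barnyardgrass, bulrush and ducksalad were co-sown in alluvial soil flooded to 4 cm and grown in a greenhouse at 25 to 30° C. At the 1- or 2-leaf stage, water-diluted emulsifiable concentrates went onto the water surface at set doses (g/a). Herbicidal effect was scored three weeks later on a graded scale.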

barnyardgrass [23] = assay: as above; details: treatment during the vegetation period under submerged conditions; dose 2.52 g/a
Outline: as §4

ducksalad [24] = assay: as above; details: treatment during the vegetation period under submerged conditions; dose 2.52 g/a
Outline: as §4

O=C1CCCON1Cc1ccccc1NS(=O)(=O)C(F)(F)F [III-12]
a: transplanted rice, effect on crop (evaluation scale 0-5) (transplanted rice): 2 (mortality of at least 20% and less than 40%) | B: bulrush, herbicidal effect (evaluation scale 0-5) (bulrush [1]): 5 (mortality of 90% or above (nearly complete death)) | A: barnyardgrass, herbicidal effect (evaluation scale 0-5) (barnyardgrass [2]): 5 (mortality of 90% or above (nearly complete death)) | C: ducksalad, herbicidal effect (evaluation scale 0-5) (ducksalad [3]): 5 (mortality of 90% or above (nearly complete death)) | I: velvetleaf, herbicidal effect (velvetleaf [4]): 5 (mortality of 90% or above (nearly complete death)) | G: water foxtail, herbicidal effect (water foxtail [5]): 5 (mortality of 90% or above (nearly complete death)) | L: common lambsquater, herbicidal effect (common lambsquater [6]): 0 (mortality of less than 5% (almost ineffective)) | E: giant foxtail, herbicidal effect (giant foxtail [7]): 3 (mortality of at least 40% and less than 70%) | H: Italian ryegrass, herbicidal effect (Italian ryegrass [8]): 3 (mortality of at least 40% and less than 70%) | F: wild oat, herbicidal effect (wild oat [9]): 0 (mortality of less than 5% (almost ineffective)) | D: large crabgrass, herbicidal effect (large crabgrass [10]): 5 (mortality of 90% or above (nearly complete death)) | J: common ragweed, herbicidal effect (common ragweed [11]): 4 (mortality of at least 70% and less than 90%) | A: barnyardgrass, herbicidal effect (barnyardgrass [12]): 5 (mortality of 90% or above (nearly complete death)) | M: posumbu knotweed, herbicidal effect (posumbu knotweed): 0 (mortality of less than 5% (almost ineffective)) | O: beadstraw, herbicidal effect (beadstraw): 4 (mortality of at least 70% and less than 90%) | herbicidal effect, I: velvetleaf (velvetleaf [13]): 5 (mortality of 90% or above (nearly complete death)) | herbicidal effect, G: water foxtail (water foxtail [14]): 5 (mortality of 90% or above (nearly complete death)) | herbicidal effect, L: common lambsquater (common lambsquater [15]): 0 (mortality of less than 5% (almost ineffective)) | herbicidal effect, K: redroot pigweed (redroot pigweed): 0 (mortality of less than 5% (almost ineffective)) | herbicidal effect, E: giant foxtail (giant foxtail [16]): 5 (mortality of 90% or above (nearly complete death)) | herbicidal effect, H: Italian ryegrass (Italian ryegrass [17]): 3 (mortality of at least 40% and less than 70%) | herbicidal effect, F: wild oat (wild oat [18]): 2 (mortality of at least 20% and less than 40%) | herbicidal effect, D: large crabgrass (large crabgrass [19]): 5 (mortality of 90% or above (nearly complete death)) | herbicidal effect, J: common ragweed (common ragweed [20]): 5 (mortality of 90% or above (nearly complete death)) | herbicidal effect, A: barnyardgrass (barnyardgrass [21]): 5 (mortality of 90% or above (nearly complete death)) | B: bulrush, herbicidal effect (evaluation scale 0-5) (bulrush [22]): 5 (mortality of 90% or above (nearly complete death)) | A: barnyardgrass, herbicidal effect (evaluation scale 0-5) (barnyardgrass [23]): 5 (mortality of 90% or above (nearly complete death)) | C: ducksalad, herbicidal effect (evaluation scale 0-5) (ducksalad [24]): 5 (mortality of 90% or above (nearly complete death))
